What all share (assay type): cell-based
Assay [1] has as its target CXCR2 receptor (Homo sapiens (Human), UniProt P25025). Nature of the assay: β-arrestin recruitment test, PathHunter HEK293-CXCR2 cells stimulated with CXCL8. As to conditions: CXCL8 10 nM. As for the experimental part: (§1) The in vitro affinity of the compounds of the present invention for the CXCR1 and CXCR2 receptors is determined on a functional test of β-arrestin recruitment type after activation of the receptor.
(§2) To evaluate the direct interaction of the CXCR2 or CXCR1 receptor with β-arrestin 2, a test of β-arrestin 2 recruitment for CXCR2 or CXCR1 based on complementation of the β-galactosidase enzyme (Olson K. R., Eglen R. M., Beta-galactosidase complementation: a cell-based luminescent assay platform for drug discovery. Assay Drug Dev. Technol. 2007 February; 5(1); 137-44), as established by DiscoveRx Corporation was used. Stimulation of these two cell lines with CXCL8 (10 nM) induces the recruitment of β-arrestin 2, as indicated by a significant increase in the induction factor. All the CXCR2 antagonists are tested in a dose-dependent manner and the concentration corresponding to 50% inhibition of the response is determined (IC50=concentration of half-inhibition).
(§3) β-Arrestin Recruitment Test: “PathHunter HEK293-CXCR2” or “U20S hCXCR1 β-arrestin” cells (DiscoveRx Corporation) were seeded overnight at 10 000 cells/well (384-well format) in 20 μl of Opti MEM I medium. Preincubation with the antagonist or the vehicle for 30 minutes at 37° C. and 5% CO2 was followed by 60 minutes of stimulation with CXCL8 at 37° C. and 5% CO2. The cells were then placed at room temperature for 30 minutes. The PathHunter detection reagent (DiscoveRx Corporation) was added. After incubation for 60 minutes at room temperature, the β-galactosidase induced by the luminescence during the β-arrestin-CXCR2 interaction was measured for 0.3 s in an Envision 2102 Multilabel Reader (PerkinElmer Life and Analytical Sciences). The data are analysed via a non-linear curve procedure using the XLFit4 (IDBS) exploitation software, and the IC50 values are determined.
Background: Recruitment of arrestin is a read-out of receptor activation apart from second messengers.

Assay [2] addresses CXCR1 receptor (Homo sapiens (Human), UniProt P25024). Nature of the assay: β-arrestin recruitment test, U2OS hCXCR1 β-arrestin cells stimulated with CXCL8. The conditions noted are these: CXCL8 10 nM. The procedure:
as §1, §2, §3

Assay [3] concerns human neutrophils. Nature of the assay: Neutrophil migration (chemotaxis assay, Transwell, IL-8). As to conditions: 10 nM IL-8, 1 hour incubation. The procedure: Purification and culturing of human neutrophils Peripheral blood preparations (18-24 hours) are collected in duly registered clinics or clinical laboratories from healthy volunteers who consented to the re-use of their blood for scientific research (Supplier: Biopredic International). The neutrophils are separated from the whole blood via a positive selection (Whole Blood CD15 MicroBeads: MiltenyiBiotech, Reference: 130-091-058). The cells are resuspended at a rate of 4×10^6 cells per mL in RPMI 1640 culture medium (Invitrogen) supplemented with filtered and heat-inactivated 5% foetal calf serum (FCS) (Invitrogen).
The experiments were performed in “HTS Transwell 96 Well Permeable Supports 3-μm pore size” filter plates (Corning, Reference: 3386). The response doses of CXCRS antagonists are applied in the lower compartments of the plates in the presence of 10 nM of IL-8 (1-72 aa, R&D Systems, Cat. No. IL-208). The neutrophils are then seeded in the upper compartment (2×10^5 cells/well). After 1 hour of incubation at 37° C. and 5% CO2, the number of viable cells that have crossed the membrane and are in the lower compartment is determined via a colorimetric method (CellTiter 96® AQueous One Solution Cell Proliferation Assay—PROMEGA Cat # G3581). Each treatment condition is evaluated in duplicate. The IC50 values are calculated with the XLFit4 software.

The mark [4] stands for this setting: Homo sapiens, Neutrophil, class symbols, read-out: Migration of human neutrophils IC50.
Where [5] appears, read: Homo sapiens, Neutrophil, read-out: Migration of h neutrophils IC50.

Like-named read-outs stand apart in the source and are kept apart here.

Sequence of CXCR2 receptor (P25025 whole entry): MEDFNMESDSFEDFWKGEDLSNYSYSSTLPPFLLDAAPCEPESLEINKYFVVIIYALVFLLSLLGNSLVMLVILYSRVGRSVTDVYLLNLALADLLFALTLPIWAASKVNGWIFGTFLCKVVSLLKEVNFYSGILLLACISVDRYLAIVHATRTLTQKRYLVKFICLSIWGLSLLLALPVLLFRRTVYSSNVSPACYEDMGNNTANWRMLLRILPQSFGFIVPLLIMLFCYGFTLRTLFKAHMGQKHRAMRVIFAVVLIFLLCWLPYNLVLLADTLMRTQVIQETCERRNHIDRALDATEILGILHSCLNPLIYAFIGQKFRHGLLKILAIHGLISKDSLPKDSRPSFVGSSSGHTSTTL
Sequence of CXCR1 receptor (P25024 whole entry): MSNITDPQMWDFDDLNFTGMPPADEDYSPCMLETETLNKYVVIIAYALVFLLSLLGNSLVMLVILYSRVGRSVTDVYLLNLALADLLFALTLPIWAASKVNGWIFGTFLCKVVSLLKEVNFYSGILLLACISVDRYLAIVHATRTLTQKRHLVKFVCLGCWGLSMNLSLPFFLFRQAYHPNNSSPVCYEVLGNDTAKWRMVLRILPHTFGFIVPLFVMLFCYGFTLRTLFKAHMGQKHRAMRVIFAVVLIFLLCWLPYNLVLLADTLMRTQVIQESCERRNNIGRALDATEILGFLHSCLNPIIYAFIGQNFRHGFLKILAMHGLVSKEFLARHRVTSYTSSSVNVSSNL

Turning to `CC[C@@H](Nc1c(Nc2ccc(Cl)c(S(C)(=O)=NC)c2O)c(=O)c1=O)c1ccccn1` (single isomer, unassigned; (+)) [Example 13], the results for the IC50 in assay [1] (class symbols) and in assay [2] (class symbols) were ≥ 20 nM and ≥ 200 nM, respectively.
With `CC[C@@H](Nc1c(Nc2cccc(S(C)(=O)=NC)c2O)c(=O)c1=O)c1ccc(C)o1` (single isomer, unassigned; (+)) [Example 16], the IC50 in assay [1] is 18 nM; in assay [1] (class symbols), < 20 nM; in assay [2], 36 nM; in assay [3] (setting [4]), ≥ 300 nM; in assay [3] (setting [5]) it was 356 nM.
In the case of `CC[C@@H](Nc1c(Nc2cccc(S(C)(=O)=NC)c2O)c(=O)c1=O)c1ccc(C)o1` (single isomer, unassigned; (+)) [Example 17], in assay [2] (class symbols), the IC50 is ≥ 200 nM.
For the compound `CC[C@@H](Nc1c(Nc2ccc(Cl)c(S(C)(=O)=NC)c2O)c(=O)c1=O)c1ccc(C)o1` (single isomer, unassigned; (+)) [Example 20], the IC50 in assay [1] (class symbols) is < 20 nM; in assay [2] (class symbols) it was < 200 nM; in assay [3] (setting [4]) it was < 300 nM.
As to `CC[C@@H](Nc1c(Nc2ccc(Cl)c(S(C)(=O)=NC)c2O)c(=O)c1=O)c1ccccn1` (single isomer, unassigned; (-)) [Example 12], the IC50 in assay [1] was 16 nM; in assay [1] (class symbols), < 20 nM; in assay [2] it was 28 nM; in assay [2] (class symbols), < 200 nM; in assay [3] (setting [4]) it was < 300 nM; in assay [3] (setting [5]), 82 nM.
Turning to `CC[C@@H](Nc1c(Nc2cccc(S(C)(=O)=NC)c2O)c(=O)c1=O)c1ccccn1` (single isomer, unassigned; (-)) [Example 14], the IC50 was ≥ 20 nM in assay [1] (class symbols), < 200 nM in assay [2] (class symbols) and ≥ 300 nM in assay [3] (setting [4]).
Turning to `CC[C@@H](Nc1c(Nc2cccc(S(C)(=O)=NC)c2O)c(=O)c1=O)c1ccccn1` (single isomer, unassigned; (-)) [Example 15], the IC50 in assay [2] (class symbols) was ≥ 200 nM.
As to `CCC(CC)Nc1c(Nc2cccc(S(C)(=O)=NC)c2O)c(=O)c1=O` (single isomer, unassigned; (-)) [Example 18], the IC50 was ≥ 20 nM in assay [1] (class symbols), ≥ 200 nM in assay [2] (class symbols) and ≥ 300 nM in assay [3] (setting [4]).
Turning to `CC[C@@H](Nc1c(Nc2ccc(Cl)c(S(C)(=N)=O)c2O)c(=O)c1=O)c1ccc(C)o1` (stereo partly drawn) [Example 1, 3-(4-Chloro-2-hydroxy-3-methanesulfoximinophenylamino)-4-[(R)-1-(5-methylfuran-2-yl)propylamino]cyclobut-3-ene-1,2-dione], the IC50 in assay [1] (class symbols) is < 20 nM; in assay [2] (class symbols) it was < 200 nM; in assay [3] (setting [4]), < 300 nM.
`CC[C@@H](Nc1c(Nc2ccc(Cl)c(S(C)(=O)=NC)c2O)c(=O)c1=O)c1ccc(C)o1` (stereo partly drawn) [Example 2, 3-{4-Chloro-2-hydroxy-3-methane[(N-methyl)sulfoximino]phenylamino}-4-[(R)-1-(5-methylfuran-2-yl)propylamino]cyclobut-3-ene-1,2-dione]: in assay [3] (class symbols, read-out: Migration of human neutrophils IC50), the IC50 is < 300 nM.
For the compound `CC[C@@H](Nc1c(Nc2ccc(Cl)c(S(C)(=O)=Nc3ccncc3)c2O)c(=O)c1=O)c1ccc(C)o1` (stereo partly drawn) [Example 3, 3-{4-Chloro-2-hydroxy-3-methane[(N-pyridin-4-yl)sulfoximino]phenylamino}-4-[(R)-1-(5-methylfuran-2-yl)propylamino]cyclobut-3-ene-1,2-dione], the IC50 in assay [1] (class symbols) is ≥ 20 nM; in assay [2] (class symbols), ≥ 200 nM.
In the same order, the values of `CCC(CC)Nc1c(Nc2ccc(Cl)c(S(C)(=O)=Nc3ccncc3)c2O)c(=O)c1=O` (stereo not shown) [Example 4, 3-{4-Chloro-2-hydroxy-3-methane[(N-pyridin-4-yl)sulfoximino]phenylamino}-4-(1-ethylpropylamino)cyclobut-3-ene-1,2-dione] are ≥ 20 nM and ≥ 200 nM.
Take `CN=S(C)(=O)c1c(Cl)ccc(Nc2c(N[C@@H](c3ccc(C)o3)[C@H]3CCCS3)c(=O)c2=O)c1O` (stereo partly drawn) [Example 5, 3-{4-Chloro-2-hydroxy-3-methane[(N-methyl)sulfoximino]phenylamino}-4-{[(S)-(5-methylfuran-2-yl)-(R)-tetrahydrothiophen-2-ylmethyl]amino}cyclobut-3-ene-1,2-dione]: the IC50 in assay [1] (class symbols) was ≥ 20 nM; in assay [2] (class symbols), < 200 nM; in assay [3] (setting [4]), < 300 nM.
Consider `CS(=N)(=O)c1c(Cl)ccc(NC(=O)Nc2cccc(F)c2Cl)c1O` (stereo not shown) [Example 6, 1-(2-Chloro-3-fluorophenyl)-3-(4-chloro-2-hydroxy-3-methanesulfoximinephenyl)-urea], for which the IC50 in assay [1] (class symbols) is ≥ 20 nM; in assay [2] (class symbols), ≥ 200 nM.
For `CN=S(C)(=O)c1c(Cl)ccc(NC(=O)Nc2cccc(F)c2Cl)c1O` (stereo not shown) [Example 7, 1-(2-Chloro-3-fluorophenyl)-3-{4-chloro-2-hydroxy-3-methane[(N-methyl)sulfoximino]phenyl}urea], in that order: ≥ 20 nM and ≥ 200 nM.
`CC[C@@H](Nc1c(Nc2cccc(S(C)(=O)=NC)c2O)c(=O)c1=O)c1ccc(C)o1` (stereo partly drawn) [Example 8, 3-{2-Hydroxy-3-methane[(N-methyl)sulfoximino]phenylamino}-4-[(R)-1-(5-methylfuran-2-yl)propylamino]cyclobut-3-ene-1,2-dione]: the IC50 is ≥ 20 nM in assay [1] (class symbols), < 200 nM in assay [2] (class symbols) and ≥ 300 nM in assay [3] (setting [4]).
As for `CCC(CC)Nc1c(Nc2ccc(Cl)c(S(C)(=O)=NCCN(C)C)c2O)c(=O)c1=O` (stereo not shown) [Example 10, 3-[4-Chloro-3-[N-(2-dimethylaminoethyl)-S-methylsulfonimidoyl]-2-hydroxyanilino]-4-(1-ethylpropylamino)cyclobut-3-ene-1,2-dione], the IC50 in assay [1] (class symbols) is ≥ 20 nM; in assay [2] (class symbols), ≥ 200 nM.
For `CC[C@@H](Nc1c(Nc2ccc(Cl)c(S(C)(=O)=NCCOC)c2O)c(=O)c1=O)c1ccc(C)o1` (stereo partly drawn) [Example 11, 3-[4-Chloro-2-hydroxy-3-[N-(2-methoxyethyl)-S-methylsulfonimidoyl]anilino]-4-[[(1R)-1-(5-methyl-2-furyl)propyl]amino]cyclobut-3-ene-1,2-dione], in that order: ≥ 20 nM and ≥ 200 nM.

The values above are taken from patent US10647706B2, “Chemokine CXCR1 and CXCR2 receptor antagonist compounds, and use thereof in the treatment of chemokine-mediated pathologies” (GALDERMA RESEARCH & DEVELOPMENT, priority 2014, dated 2020).
